Structures can show the parent of a compound that is named as a salt.

For data set [1] the following is noted: mouse, in vivo, sc, 120 min. How it is done: At 0.25, 0.5, 1.0 and 2.0 hours after administration, the concentration of compound [II] in plasma of the mouse is measured by the cup method using Proteus mirabilis Eb 313 as the test organism and the area under plasma concentration-time curve from zero to 2 hours (AUC) is calculated.
The compound [II ] was subcutaneously applied and AUC was calculated in the same manner as above.

The test system of a further data set is Staphylococcus aureus. The note with it: gram-positive bacteria, Antimicrobial Agent and Chemotherapy 14, 557-568 (1978); cited from earlier work.
A further data set deals with Escherichia coli. The conditions noted are these: gram-negative bacteria, Antimicrobial Agent and Chemotherapy 14, 557-568 (1978); cited from earlier work.
Another data set relates to Klebsiella pneumoniae. The conditions noted are these: gram-negative bacteria, Antimicrobial Agent and Chemotherapy 14, 557-568 (1978); cited from earlier work.
Another data set has as its system Proteus vulgaris. The note with it: gram-negative bacteria, Antimicrobial Agent and Chemotherapy 14, 557-568 (1978); cited from earlier work.
The test system of another data set is Proteus mirabilis. The note with it: gram-negative bacteria, Antimicrobial Agent and Chemotherapy 14, 557-568 (1978); cited from earlier work.
Another data set concerns proteus morganii. The conditions noted are these: gram-negative bacteria, Antimicrobial Agent and Chemotherapy 14, 557-568 (1978); cited from earlier work.
Data set [2] in a line: oral administration to mice: plasma level of non-ester compound (compound [II]), AUC and bioavailability. Type of data set: in vivo. The note with it: compound [II] in plasma, 100 mg/kg (in terms of compound [II]), zero to 2 hours.

For `CN(C)CCn1nnnc1SCC1=C(C(=O)O)N2C(=O)[C@@H](NC(=O)Cc3csc(N)n3)[C@H]2SC1` [compound[II], 7β-[2-(2-aminothiazol-4-yl)acetamido]-3-[[[1-(2-dimethylaminoethyl)-1H-tetrazol-5-yl]thio]methyl]-ceph-3-em-4-carboxylic acid], the Bioavailability in data set [1] is 100%. For the same compound, the antibacterial activity result in the data set on Staphylococcus aureus, in the data set with Escherichia coli, in the data set with Klebsiella pneumoniae, in the data set on Proteus vulgaris, in the data set on Proteus mirabilis and in the data set on proteus morganii was “potent antibacterial activity” throughout.
In the case of `CC(OC(=O)OC1CCCCC1)OC(=O)C1=C(CSc2nnnn2CCN(C)C)CS[C@@H]2[C@H](NC(=O)Cc3csc(N)n3)C(=O)N12.Cl.Cl` (stereo partly drawn) [Example 2-1, 1-(Cyclohexyloxycarbonyloxy)ethyl 7β-[2-(2-aminothiazol-4-yl)acetamido]-3-[[[1-(2-dimethylaminoethyl)-1H-tetrazol-5-yl]thio]methyl]ceph-3-em-4-carboxylate dihydrochloride], in data set [2], the AUC (usually concentration integrated over time) is 30000 ng·h/mL.
Still for that read-out and setting: under `CCC(OC(=O)OC1CCCCC1)OC(=O)C1=C(CSc2nnnn2CCN(C)C)CS[C@@H]2[C@H](NC(=O)Cc3csc(N)n3)C(=O)N12` (stereo partly drawn) [Example 5-2] stands 31300 ng·h/mL; under `CCCC(OC(=O)OC1CCCCC1)OC(=O)C1=C(CSc2nnnn2CCN(C)C)CS[C@@H]2[C@H](NC(=O)Cc3csc(N)n3)C(=O)N12` (stereo partly drawn) [Example 5-7], 36300 ng·h/mL; under `CC(OC(=O)OC1CCCCC1C)OC(=O)C1=C(CSc2nnnn2CCN(C)C)CS[C@@H]2[C@H](NC(=O)Cc3csc(N)n3)C(=O)N12` (stereo partly drawn) [Example 2-11], 35400 ng·h/mL.
In data set [2] (100 mg/kg), `CC(OC(=O)OC1CCCCC1C)OC(=O)C1=C(CSc2nnnn2CCN(C)C)CSC2C(NC(=O)Cc3csc(N)n3)C(=O)N12` (stereo not drawn) [Example 2-13] displayed an AUC of 36100 ng·h/mL.
`CN(C)CCn1nnnc1SCC1=C(C(=O)OCOC(=O)OC2CCCCCCCCCCC2)N2C(=O)[C@@H](NC(=O)Cc3csc(N)n3)[C@H]2SC1` [Example 1-5] yielded an AUC in data set [2] of 33100 ng·h/mL.
Still for that read-out and setting: next, `CC1CCCC(OC(=O)OC(C)OC(=O)C2=C(CSc3nnnn3CCN(C)C)CS[C@@H]3[C@H](NC(=O)Cc4csc(N)n4)C(=O)N23)C1` (stereo partly drawn) [Example 2-10]: 30100 ng·h/mL; `CC(C)[C@@H]1CC[C@@H](C)C[C@H]1OC(=O)OCOC(=O)C1=C(CSc2nnnn2CCN(C)C)CS[C@@H]2[C@H](NC(=O)Cc3csc(N)n3)C(=O)N12` [Example 1-6]: 29400 ng·h/mL; `CCOC(=O)OC(C)OC(=O)C1=C(CSc2nnnn2CCN(C)C)CS[C@@H]2[C@H](NC(=O)Cc3csc(N)n3)C(=O)N12` (stereo partly drawn) [A, 1-(ethoxycarbonyloxy)ethyl 78-[2-(2-aminothiazol-4-yl)acetamido]-3-[[[1-(2-dimethylaminoethyl)-1H-tetrazol-5-yl]-thio]methyl]ceph-3-em-4-carboxylate, reference compound]: 9280 ng·h/mL.
`CC(OC(=O)OC1CCCCC1C)OC(=O)C1=C(CSc2nnnn2CCN(C)C)CSC2C(NC(=O)Cc3csc(N)n3)C(=O)N12` (stereo not drawn) [Example 2-12] gave an AUC in data set [2] (100 mg/kg) of 35500 ng·h/mL.
For the compound `CN(C)CCn1nnnc1SCC1=C(C(=O)OCOC(=O)OC2CCCCC2)N2C(=O)[C@@H](NC(=O)Cc3csc(N)n3)[C@H]2SC1` [Example 1-1, Cyclohexyloxycarbonyloxy 7β-[2-Aminothiazol-4-yl)Acetamido]-3-[[[1-(2-Dimethylaminoethyl)-1H-Tetrazol-5-yl]Thio]Methyl]Ceph-3-Em-4-Carboxylate Dihydrochloride], the AUC in data set [2] worked out at 30000 ng·h/mL.

These data come from patent US5120841A, “Cephalosporin ester derivatives” (Takeda Chemical Industries, Ltd., priority 1983, dated 1992).
